Test results published in patent publication US8367873B2, “Phenyl-substituted bicyclooctane-1,3-dione derivatives” (Bayer Cropscience AG, priority 2008, dated 2013).

How the values were obtained:
Assay type in all cases: in vivo
Alopecurus myosuroides [1] = experiment: Herbicidal pre-emergence action; settings: pre-emergence method, 80 g/ha, greenhouse, visual assessment vs untreated controls
Method in brief: (§1)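 Seeds sown in sandy loam and covered with soil; WP-formulated compounds applied as aqueous suspension (600 l/ha water, 0.2% wetting agent) to the soil surface at various rates. Greenhouse-grown; emergence damage scored visually after three weeks versus untreated controls (0% = like control, 100% = plants dead).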

Echinocloa crus-galli [2] = experiment: Herbicidal pre-emergence action; settings: pre-emergence method, 80 g/ha, greenhouse, visual assessment vs untreated controls
Method in brief: as §1

Lolium multiflorum [3] = experiment: Herbicidal pre-emergence action; settings: pre-emergence method, 80 g/ha, greenhouse, visual assessment vs untreated controls
Method in brief: as §1

Setaria viridis [4] = experiment: Herbicidal pre-emergence action; settings: pre-emergence method, 80 g/ha, greenhouse, visual assessment vs untreated controls
Method in brief: as §1

Alopecurus myosuroides [5] = experiment: Herbicidal post-emergence action; settings: post-emergence method; for herbicidal effect against ALOMY (Alopecurus myosuroides): 80 g/ha
Method in brief: (§2)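 Post-emergence spray test: wettable-powder formulations are applied at different amounts to one-leaf-stage plants in 600 l/ha water containing 0.2% wetting agent. After roughly three weeks in the greenhouse, percent effect is rated visually relative to untreated controls.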

Echinocloa crus-galli [6] = experiment: Herbicidal post-emergence action; settings: post-emergence method; for herbicidal effect against ECHCG (Echinochloa crus-galli): 80 g/ha
Method in brief: as §2

Lolium multiflorum [7] = experiment: Herbicidal post-emergence action; settings: post-emergence method; for herbicidal effect against LOLMU (Lolium multiflorum): 80 g/ha
Method in brief: as §2

Setaria viridis [8] = experiment: Herbicidal post-emergence action; settings: post-emergence method; for herbicidal effect against SETVI (Setaria viridis): 80 g/ha
Method in brief: as §2

cereals = experiment: Container trials with cereals in the greenhouse, use of safeners (Mefenpyr 1 day prior to herbicide application)
Procedure: Seeds of monocotylidonous and dicotylidonous weed and crop plants are placed in sandy loam in wood fibre pots, covered with soil and cultivated in a greenhouse under good growth conditions. Two to three weeks after sowing, the test plants are treated at the one-leaf stage. The test compounds, formulated as wettable powders (WP), are then with a water application rate of 600 l/ha (converted), with 0.2% of wetting agent added, sprayed onto the green parts of the plants in different amounts. After the test plants have been kept in the greenhouse under optimum growth conditions for about three weeks, the effect of the preparations is assessed visually in comparison to untreated controls (herbicidal effect in percent: 100% effect=the plants have died, 0% effect=like control plants).
If it is to be additionally tested as to whether safeners can improve the plant compatibility of test substances in the case of crop plants, the following options are used for applying the safeners: • Seeds of the crop plants are, before sowing, dressed with safener substance (the amount of safener stated in percent, based on the weight of the seed) • Before the application of the test substances, the crop plants are sprayed with the safener at a certain application rate per hectare (usually one day before the application of the test substances) • The safener is applied together with the test substance as a tank mix (the amount of safener stated in g/ha or as a ratio, based on the herbicide).
Container Trials with Cereals in the Greenhouse

[9] = test system: monocotylidonous and dicotylidonous weed and crop plants; experiment: Herbicidal pre-emergence action (other test plants); settings: pre-emergence method, 80 g/ha, greenhouse, visual assessment vs untreated controls
Method in brief: as §1

[10] = test system: monocotylidonous and dicotylidonous weed and crop plants; experiment: Herbicidal post-emergence action (other test plants); settings: post-emergence method; for herbicidal effect against AVEFA (Avena fatua): 80 g/ha
Method in brief: as §2

[11] = 28 days after application, 50 g of a.i./ha
[12] = 28 days after application, 100 g of a.i./ha
[13] = 28 days after application, 12.5 g of a.i./ha
[14] = 28 days after application, 25 g of a.i./ha

## CCc1cc(C)cc(CC)c1C1=C(O)[C@H]2CC3(C[C@H]2C1=O)OCCCO3 (relative stereo) [I-a-11]
Alopecurus myosuroides [1]
  herbicidal effect ALOMY: 90%
Echinocloa crus-galli [2]
  herbicidal effect ECHCG: 100%
Lolium multiflorum [3]
  herbicidal effect LOLMU: 100%
Setaria viridis [4]
  herbicidal effect SETVI: 70%
Alopecurus myosuroides [5]
  herbicidal effect against ALOMY (Alopecurus myosuroides): 90%
Echinocloa crus-galli [6]
  herbicidal effect against ECHCG (Echinochloa crus-galli): 100%
Lolium multiflorum [7]
  herbicidal effect against LOLMU (Lolium multiflorum): 100%
Setaria viridis [8]
  herbicidal effect against SETVI (Setaria viridis): 100%
cereals; [11]
  Summer barley observed (%): 8%
  Summer wheat observed (%): 60%
cereals; [12]
  Summer barley observed (%): 10%
  Summer wheat observed (%): 70%
cereals; 10 days after application, 12.5 g of a.i./ha
  Summer wheat observed (%): 30%
cereals; 10 days after application, 25 g of a.i./ha
  Summer wheat observed (%): 50%
cereals; 10 days after application, 50 g of a.i./ha
  Summer wheat observed (%): 70%
cereals; [13]
  Summer wheat observed (%): 10%
cereals; [14]
  Summer wheat observed (%): 50%
[9]
  herbicidal effect AVEFA: 50%
[10]
  herbicidal effect against AVEFA (Avena fatua): 90%

## C=C1COC2(C[C@@H]3C(O)=C(c4c(CC)cc(C)cc4CC)C(=O)[C@@H]3C2)OC1 [I-a-3]
Alopecurus myosuroides [1]
  herbicidal effect ALOMY: 100%
Echinocloa crus-galli [2]
  herbicidal effect ECHCG: 100%
Lolium multiflorum [3]
  herbicidal effect LOLMU: 100%
Setaria viridis [4]
  herbicidal effect SETVI: 100%
Alopecurus myosuroides [5]; Alopecurus myosuroides, 504 h, read-out: herbicidal effect against ALOMY (Alopecurus myosuroides)
  pest or weed control at 80 g/ha: 90%
Echinocloa crus-galli [6]; Echinochloa crus-galli, 504 h, read-out: herbicidal effect against ECHCG (Echinochloa crus-galli)
  pest or weed control at 80 g/ha: 100%
Lolium multiflorum [7]; Lolium multiflorum, 504 h, read-out: herbicidal effect against LOLMU (Lolium multiflorum)
  pest or weed control at 80 g/ha: 100%
Setaria viridis [8]; Setaria viridis, 504 h, read-out: herbicidal effect against SETVI (Setaria viridis)
  pest or weed control at 80 g/ha: 100%
cereals; [14]
  Summer barley observed (%): 20%
  Summer wheat observed (%): 60%
cereals; [11]
  Summer barley observed (%): 60%
  Summer wheat observed (%): 70%
cereals; [12]
  Summer barley observed (%): 70%
  Summer wheat observed (%): 85%
cereals; [13]
  Summer wheat observed (%): 10%
[9]
  herbicidal effect AVEFA: 80%
[10]; 504 h, Avena fatua, read-out: herbicidal effect against AVEFA (Avena fatua)
  pest or weed control at 80 g/ha: 90%

## CCc1cc(C)cc(CC)c1C1=C(OC(=O)OC(C)C)[C@H]2C[C@]3(COC(C)(C)O3)C[C@H]2C1=O (relative stereo) [I-c-3]
Alopecurus myosuroides [1]
  herbicidal effect ALOMY: 100%
Echinocloa crus-galli [2]
  herbicidal effect ECHCG: 40%
Lolium multiflorum [3]
  herbicidal effect LOLMU: 100%
Setaria viridis [4]
  herbicidal effect SETVI: 70%
Alopecurus myosuroides [5]
  herbicidal effect against ALOMY (Alopecurus myosuroides): 90%
Echinocloa crus-galli [6]
  herbicidal effect against ECHCG (Echinochloa crus-galli): 90%
Lolium multiflorum [7]
  herbicidal effect against LOLMU (Lolium multiflorum): 100%
Setaria viridis [8]
  herbicidal effect against SETVI (Setaria viridis): 80%
cereals; [14]
  Summer barley observed (%): 15%
  Summer wheat observed (%): 20%
cereals; [11]
  Summer barley observed (%): 30%
  Summer wheat observed (%): 60%
cereals; [12]
  Summer barley observed (%): 95%
  Summer wheat observed (%): 99%
cereals; [13]
  Summer wheat observed (%): 10%
[9]
  herbicidal effect AVEFA: 80%
[10]
  herbicidal effect against AVEFA (Avena fatua): 80%

## CCOC(=O)OC1=C(c2c(CC)cc(C)cc2CC)C(=O)C2CC3(CC12)OC(C)CC(C)O3 (mixture of isomers) [I-c-10]
Alopecurus myosuroides [1]
  herbicidal effect ALOMY: 100%
Echinocloa crus-galli [2]
  herbicidal effect ECHCG: 100%
Lolium multiflorum [3]
  herbicidal effect LOLMU: 100%
Setaria viridis [4]
  herbicidal effect SETVI: 90%
Alopecurus myosuroides [5]
  herbicidal effect against ALOMY (Alopecurus myosuroides): 90%
Lolium multiflorum [7]
  herbicidal effect against LOLMU (Lolium multiflorum): 100%
Setaria viridis [8]
  herbicidal effect against SETVI (Setaria viridis): 90%
cereals; [11]
  Summer barley observed (%): 50%
  Summer wheat observed (%): 95%
cereals; [12]
  Summer barley observed (%): 95%
cereals; [13]
  Summer wheat observed (%): 15%
cereals; [14]
  Summer wheat observed (%): 50%
[9]
  herbicidal effect AVEFA: 80%
[10]
  herbicidal effect against AVEFA (Avena fatua): 100%

## CCc1cc(C)cc(C)c1C1=C(O)C2CC3(CC2C1=O)OCCCO3 (stereo not drawn) [I-a-58]
Alopecurus myosuroides [1]
  herbicidal effect ALOMY: 70%
Echinocloa crus-galli [2]
  herbicidal effect ECHCG: 100%
Lolium multiflorum [3]
  herbicidal effect LOLMU: 100%
Setaria viridis [4]
  herbicidal effect SETVI: 100%
Alopecurus myosuroides [5]
  herbicidal effect against ALOMY (Alopecurus myosuroides): 100%
Echinocloa crus-galli [6]
  herbicidal effect against ECHCG (Echinochloa crus-galli): 100%
Lolium multiflorum [7]
  herbicidal effect against LOLMU (Lolium multiflorum): 100%
Setaria viridis [8]
  herbicidal effect against SETVI (Setaria viridis): 100%
cereals; [14]
  Summer barley observed (%): 5%
  Summer wheat observed (%): 15%
cereals; [11]
  Summer barley observed (%): 10%
  Summer wheat observed (%): 20%
cereals; [12]
  Summer barley observed (%): 15%
  Summer wheat observed (%): 60%
cereals; [13]
  Summer wheat observed (%): 10%
[9]
  herbicidal effect AVEFA: 70%

## Cc1cc(C)c(C2=C(OC(=O)C(C)C)C3CC4(CC3C2=O)OCCO4)c(C)c1 (stereo not drawn) [I-b-39]
Alopecurus myosuroides [1]
  herbicidal effect ALOMY: 60%
Echinocloa crus-galli [2]
  herbicidal effect ECHCG: 10%
Lolium multiflorum [3]
  herbicidal effect LOLMU: 80%
Setaria viridis [4]
  herbicidal effect SETVI: 0%
Alopecurus myosuroides [5]
  herbicidal effect against ALOMY (Alopecurus myosuroides): 60%
Echinocloa crus-galli [6]
  herbicidal effect against ECHCG (Echinochloa crus-galli): 100%
Lolium multiflorum [7]
  herbicidal effect against LOLMU (Lolium multiflorum): 100%
Setaria viridis [8]
  herbicidal effect against SETVI (Setaria viridis): 90%
[9]
  herbicidal effect AVEFA: 50%
[10]
  herbicidal effect against AVEFA (Avena fatua): 20%

## CCc1cc(C)cc(CC)c1C1=C(O)C2CC3(CC2C1=O)OCCS3 (mixture of isomers) [I-a-35]
Alopecurus myosuroides [1]
  herbicidal effect ALOMY: 80%
Echinocloa crus-galli [2]
  herbicidal effect ECHCG: 70%
Lolium multiflorum [3]
  herbicidal effect LOLMU: 100%
Setaria viridis [4]
  herbicidal effect SETVI: 70%
Alopecurus myosuroides [5]
  herbicidal effect against ALOMY (Alopecurus myosuroides): 100%
Echinocloa crus-galli [6]
  herbicidal effect against ECHCG (Echinochloa crus-galli): 100%
Lolium multiflorum [7]
  herbicidal effect against LOLMU (Lolium multiflorum): 100%
Setaria viridis [8]
  herbicidal effect against SETVI (Setaria viridis): 90%
[9]
  herbicidal effect AVEFA: 80%
[10]
  herbicidal effect against AVEFA (Avena fatua): 80%

## C=C1CC2C(=O)C(c3c(C)cc(C)cc3CC)=C(O)C2C1 (stereo not drawn) [I-a-55]
Alopecurus myosuroides [1]
  herbicidal effect ALOMY: 60%
Echinocloa crus-galli [2]
  herbicidal effect ECHCG: 100%
Lolium multiflorum [3]
  herbicidal effect LOLMU: 50%
Setaria viridis [4]
  herbicidal effect SETVI: 90%
Alopecurus myosuroides [5]
  herbicidal effect against ALOMY (Alopecurus myosuroides): 20%
Echinocloa crus-galli [6]
  herbicidal effect against ECHCG (Echinochloa crus-galli): 100%
Lolium multiflorum [7]
  herbicidal effect against LOLMU (Lolium multiflorum): 40%
Setaria viridis [8]
  herbicidal effect against SETVI (Setaria viridis): 100%
[9]
  herbicidal effect AVEFA: 60%
[10]
  herbicidal effect against AVEFA (Avena fatua): 0%

## CCc1cc(C)cc(CC)c1C1=C(OC(=O)OC)[C@H]2C[C@]3(COC(C)(C)O3)C[C@H]2C1=O (relative stereo) [I-c-4]
Alopecurus myosuroides [1]
  herbicidal effect ALOMY: 90%
Echinocloa crus-galli [2]
  herbicidal effect ECHCG: 60%
Lolium multiflorum [3]
  herbicidal effect LOLMU: 90%
Setaria viridis [4]
  herbicidal effect SETVI: 50%
Alopecurus myosuroides [5]
  herbicidal effect against ALOMY (Alopecurus myosuroides): 90%
Echinocloa crus-galli [6]
  herbicidal effect against ECHCG (Echinochloa crus-galli): 100%
Lolium multiflorum [7]
  herbicidal effect against LOLMU (Lolium multiflorum): 100%
Setaria viridis [8]
  herbicidal effect against SETVI (Setaria viridis): 0%
[9]
  herbicidal effect AVEFA: 80%
[10]
  herbicidal effect against AVEFA (Avena fatua): 90%
